{
  "source": "patent US20080045567A1",
  "about": "“Therapeutic Agent for Hyperlipemia and Therapeutic Agent for Diabetes” (Kowa Co., Ltd, priority 2004, published 2008)",
  "key": {"blood triglycerides [1]": {"tested_on": "blood triglycerides", "assay": "Lowering of blood triglycerides by combined administration of sodium salt of compound A and calcium salt of atorvastatin in rats (Example 2)", "format": "in vivo, male Wistar strain rats", "details": "rat; for blood triglycerides in comparison with the control group (in words): orally 14 days, Dunnett's test; for Reduction rate of blood triglycerides (%): blood collected after 18 h fast, vs control group", "text": "Six-week-old male Wistar strain rats (Nippon Ikagaku Jikken Doubutsu Kabushiki Kaisha) were used for the test. Throughout the experimental period, the rats were fed in a rearing room maintained at a light-dark cycle (light period lit by room lamp: 7 am to 7 pm), a temperature of 23±3 degrees C., and a humidity of 55±15%, and were allowed free access to solid feed (CE-2: CLEA Japan, Inc.) and tap water.\nCalcium salt of pitavastatin and sodium salt of the compound A were suspended in an aqueous solution of 0.5% by mass of sodium carboxymethylcellulose (Iwai Chemicals Co., Ltd.) and prepared so that the dose amount became 2 mL/kg. Since calcium salt of pitavastatin contained 9.43% by mass of water, 1.1-fold by mass of the dose amount was weighed to correct. The suspension was refrigerated (4 degrees C.) and kept in a light-resistant bottle, and its preparation was carried out every 7 days.\nThirty-two rats were divided into four groups (eight rats per each group) so that blood total cholesterol and blood triglycerides are averaged. That is, the four groups consisted of a control group, a group of calcium salt of pitavastatin alone (10 mg/kg), a group of sodium salt of the compound A alone (1 mg/kg), and a group of a combination of calcium salt of pitavastatin (10 mg/kg) and sodium salt of the compound A (1 mg/kg). The drugs were orally administered once a day (at 4 pm) for 14 days repeatedly, and the control group received orally the aqueous solution of 0.5% by mass of sodium carboxymethylcellulose at 2 mL/kg. All the groups were fasted for 18 hours after the final administration. Then, blood was collected and blood triglycerides were determined.\nThe effect of lowering blood triglycerides by combined administration of sodium salt of the compound A and calcium salt of atorvastatin was determined as in Example 1."}, "blood triglycerides [2]": {"tested_on": "blood triglycerides", "assay": "Lowering of blood triglycerides by combined administration of sodium salt of compound A and calcium salt of pitavastatin in rats (Example 1)", "format": "in vivo, male Wistar strain rats", "details": "rat; for blood triglycerides in comparison with the control group (in words): orally 14 days, Dunnett's test; for Reduction rate of blood triglycerides (%): blood collected after 18 h fast, vs control group", "protocol": "The effect of lowering blood triglycerides by combined administration of sodium salt of the compound A and calcium salt of pitavastatin was determined by the following method. Six-week-old male Wistar strain rats (Nippon Ikagaku Jikken Doubutsu Kabushiki Kaisha) were used for the test. Throughout the experimental period, the rats were fed in a rearing room maintained at a light-dark cycle (light period lit by room lamp: 7 am to 7 pm), a temperature of 23±3 degrees C., and a humidity of 55±15%, and were allowed free access to solid feed (CE-2: CLEA Japan, Inc.) and tap water. Calcium salt of pitavastatin and sodium salt of the compound A were suspended in an aqueous solution of 0.5% by mass of sodium carboxymethylcellulose (Iwai Chemicals Co., Ltd.) and prepared so that the dose amount became 2 mL/kg. Since calcium salt of pitavastatin contained 9.43% by mass of water, 1.1-fold by mass of the dose amount was weighed to correct. The suspension was refrigerated (4 degrees C.) and kept in a light-resistant bottle, and its preparation was carried out every 7 days. Thirty-two rats were divided into four groups (eight rats per each group) so that blood total cholesterol and blood triglycerides are averaged. That is, the four groups consisted of a control group, a group of calcium salt of pitavastatin alone (10 mg/kg), a group of sodium salt of the compound A alone (1 mg/kg), and a group of a combination of calcium salt of pitavastatin (10 mg/kg) and sodium salt of the compound A (1 mg/kg). The drugs were orally administered once a day (at 4 pm) for 14 days repeatedly, and the control group received orally the aqueous solution of 0.5% by mass of sodium carboxymethylcellulose at 2 mL/kg. All the groups were fasted for 18 hours after the final administration. Then, blood was collected and blood triglycerides were determined. Multigroup comparison between the control group and drug-administered group was performed with Dunnett's multiple comparison test after Bartlett's test for analysis of variance, and a significance level lower than 5% was considered to indicate significant difference."}, "[3]": {"details": "1 mg/kg orally once a day for 14 days"}},
  "data": [
    {"smiles": "CC(C)c1c(C(=O)Nc2ccccc2)c(-c2ccccc2)c(-c2ccc(F)cc2)n1CC[C@@H](O)C[C@@H](O)CC(=O)O", "note": "[Atorvastatin Ca, atorvastatin]", "values": [
      {"measurement": "blood triglycerides in comparison with the control group (in words)", "setting": "blood triglycerides [1]; 50 mg/kg alone", "result": "a tendency to be lowered"},
      {"measurement": "Reduction rate of blood triglycerides (%)", "setting": "blood triglycerides [1]; 50 mg/kg orally once a day for 14 days", "result": 7, "unit": "%"}
    ]},
    {"smiles": "O=C(O)C(Cl)(Cl)CCCCCCCCCCc1ccc(Cl)cc1", "note": "[Compound A Na, 12-(4-chlorophenyl)-2,2-dichlorododecanoic acid]", "values": [
      {"measurement": "blood triglycerides in comparison with the control group (in words)", "setting": "blood triglycerides [2]; 1 mg/kg alone, p<0.05", "result": "a significant reduction"},
      {"measurement": "Reduction rate of blood triglycerides (%)", "setting": "blood triglycerides [2]; [3]", "result": 25, "unit": "%"},
      {"measurement": "blood triglycerides in comparison with the control group (in words)", "setting": "blood triglycerides [1]; 1 mg/kg alone, p<0.05", "result": "a significant reduction"},
      {"measurement": "Reduction rate of blood triglycerides (%)", "setting": "blood triglycerides [1]; [3]", "result": 25, "unit": "%"}
    ]},
    {"smiles": "O=C(O)C[C@H](O)C[C@H](O)/C=C/c1c(C2CC2)nc2ccccc2c1-c1ccc(F)cc1", "note": "[Pitavastatin Ca, (3R,5S,6E)-7-[2-cyclopropyl-4-(4-fluorophenyl)-3-quinolyl]-3,5-dihydroxy-6-heptenoic acid]", "values": [
      {"measurement": "blood triglycerides in comparison with the control group (in words)", "setting": "blood triglycerides [2]; 10 mg/kg alone", "result": "a tendency to be lowered"},
      {"measurement": "Reduction rate of blood triglycerides (%)", "setting": "blood triglycerides [2]; 10 mg/kg orally once a day for 14 days", "result": 20, "unit": "%"}
    ]}
  ]
}
